Test results: patent US8129371B2, “Thienopyrimidine and pyrazolopyrimidine compounds and their use as mTOR kinase and PI3 kinase inhibitors” (Wyeth LLC, priority 2007, dated 2012)

Assays:
prostate line LNCap = assay: In vitro cell culture growth assay (MTS), LNCap; assay type: cell-based; details: Homo sapiens, LNCaP, 72 h, LNCap cells, three days after drug treatment
Outline: (§1)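 Inhibitors were added one day after plating, and viable cells were measured 3 days later by MTS conversion (absorbance 490 nm).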

PI3K [1] = target: T1, PI3K (Homo sapiens, UniProt P48736); assay: Fluorescence polarization assay for PI3K; assay type: biochemical; details: PI3 Kinase γ isoform, fluorescence polarization; read-out: PI3 Kinase γ IC50
T1 construct: PI3 Kinase γ IC50; other: PI3 Kinase γ; other: PI3 Kinase γ isoform, fluorescence polarization
Outline: (§2)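 Fluorescence-polarization competition readout: after 30–60 min of PIP2/ATP turnover in 1% DMSO, a stop mix with GST-GRP (70 nM) and red probe (10 nM) was added.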

PI3K [2] = target: T2, PI3K (Homo sapiens, UniProt P42336); assay: Fluorescence polarization assay for PI3K; assay type: biochemical; details: PI3 Kinase α isoform, fluorescence polarization; read-out: PI3 Kinase α IC50
T2 construct: PI3 Kinase α IC50; other: PI3 Kinase α; other: PI3 Kinase α isoform, fluorescence polarization
Outline: as §2

Human mTOR (FLAG-TOR) = target: T3, Human mTOR (FLAG-TOR) (Homo sapiens, UniProt P42345); assay: Human mTOR kinase assay with purified enzyme, DELFIA format; assay type: biochemical; details: purified human mTOR enzyme, DELFIA format
T3 construct: FLAG
Outline: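 DELFIA readout: Eu-anti-P(T389)-S6K antibody (40 ng/mL, 1 h) on captured His6-S6K from the stopped reaction. Kinase step used purified FLAG-tagged human mTOR with test compound in HEPES (pH 7.4)/MnCl2/DTT buffer, 2 h at room temperature (linear 1–6 h), terminated by EDTA/EGTA.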

breast line MDA468 = assay: In vitro cell culture growth assay (MTS), MDA468; assay type: cell-based; details: Homo sapiens, 72 h, MDA468 cells, three days after drug treatment
Outline: as §1

T2 sequence (P42336 whole entry, canonical isoform): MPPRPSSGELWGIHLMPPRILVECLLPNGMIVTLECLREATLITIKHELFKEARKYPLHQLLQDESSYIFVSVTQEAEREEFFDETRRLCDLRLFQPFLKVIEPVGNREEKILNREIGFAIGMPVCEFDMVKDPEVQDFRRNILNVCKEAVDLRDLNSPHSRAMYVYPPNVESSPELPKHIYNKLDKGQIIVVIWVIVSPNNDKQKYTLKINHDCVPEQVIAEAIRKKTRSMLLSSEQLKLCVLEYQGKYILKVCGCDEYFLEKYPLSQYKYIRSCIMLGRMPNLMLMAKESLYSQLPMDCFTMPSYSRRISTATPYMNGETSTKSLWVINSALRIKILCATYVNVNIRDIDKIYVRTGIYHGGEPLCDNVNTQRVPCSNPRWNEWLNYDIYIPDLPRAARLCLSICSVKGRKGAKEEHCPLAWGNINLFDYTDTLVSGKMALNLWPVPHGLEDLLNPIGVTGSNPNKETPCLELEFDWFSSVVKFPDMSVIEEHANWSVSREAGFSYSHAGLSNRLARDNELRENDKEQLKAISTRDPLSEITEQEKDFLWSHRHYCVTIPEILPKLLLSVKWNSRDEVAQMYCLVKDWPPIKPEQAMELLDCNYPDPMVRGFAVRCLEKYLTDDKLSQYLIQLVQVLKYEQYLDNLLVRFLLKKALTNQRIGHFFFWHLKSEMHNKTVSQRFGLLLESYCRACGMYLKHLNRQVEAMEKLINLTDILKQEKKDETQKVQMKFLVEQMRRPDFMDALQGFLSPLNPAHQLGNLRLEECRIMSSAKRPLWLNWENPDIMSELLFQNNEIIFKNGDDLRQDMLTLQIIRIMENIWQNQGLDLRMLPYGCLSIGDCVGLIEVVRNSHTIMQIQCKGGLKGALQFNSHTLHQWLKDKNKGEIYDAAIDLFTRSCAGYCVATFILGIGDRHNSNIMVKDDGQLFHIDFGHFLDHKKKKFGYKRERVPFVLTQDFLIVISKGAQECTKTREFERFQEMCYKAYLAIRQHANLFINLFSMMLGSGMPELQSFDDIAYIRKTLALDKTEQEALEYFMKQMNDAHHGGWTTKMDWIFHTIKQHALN
T1 sequence (P48736 whole entry, canonical isoform): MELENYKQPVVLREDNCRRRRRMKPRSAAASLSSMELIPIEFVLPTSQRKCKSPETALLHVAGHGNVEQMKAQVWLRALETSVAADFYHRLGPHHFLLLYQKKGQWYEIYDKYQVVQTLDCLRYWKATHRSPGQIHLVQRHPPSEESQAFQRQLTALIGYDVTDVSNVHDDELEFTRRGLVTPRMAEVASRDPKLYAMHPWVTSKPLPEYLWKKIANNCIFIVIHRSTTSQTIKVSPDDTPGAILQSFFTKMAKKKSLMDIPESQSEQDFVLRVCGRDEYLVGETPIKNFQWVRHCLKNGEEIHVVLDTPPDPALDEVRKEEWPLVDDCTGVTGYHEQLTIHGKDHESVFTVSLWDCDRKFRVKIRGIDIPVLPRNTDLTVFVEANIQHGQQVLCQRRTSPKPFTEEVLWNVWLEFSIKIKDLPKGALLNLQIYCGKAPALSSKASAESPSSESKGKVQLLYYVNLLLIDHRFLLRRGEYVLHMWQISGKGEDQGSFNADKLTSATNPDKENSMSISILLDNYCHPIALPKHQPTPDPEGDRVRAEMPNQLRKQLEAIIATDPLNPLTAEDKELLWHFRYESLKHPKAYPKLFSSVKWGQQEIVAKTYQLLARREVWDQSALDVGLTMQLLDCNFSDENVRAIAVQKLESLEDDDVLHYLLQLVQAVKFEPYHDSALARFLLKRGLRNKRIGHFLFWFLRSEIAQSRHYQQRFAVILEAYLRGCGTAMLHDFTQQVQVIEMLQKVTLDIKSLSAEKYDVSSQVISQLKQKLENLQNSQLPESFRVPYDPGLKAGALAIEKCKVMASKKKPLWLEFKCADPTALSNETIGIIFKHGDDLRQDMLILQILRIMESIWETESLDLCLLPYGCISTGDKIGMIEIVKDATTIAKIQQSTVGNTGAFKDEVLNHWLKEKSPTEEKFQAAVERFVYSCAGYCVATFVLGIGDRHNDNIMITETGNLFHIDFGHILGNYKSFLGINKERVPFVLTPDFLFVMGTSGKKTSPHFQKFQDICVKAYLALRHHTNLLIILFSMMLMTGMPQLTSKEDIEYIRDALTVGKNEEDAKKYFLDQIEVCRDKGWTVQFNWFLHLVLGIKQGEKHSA

Row | SMILES | IC50 (prostate line LNCap) | IC50 (PI3K [1]) | IC50 (PI3K [2]) | IC50 (Human mTOR (FLAG-TOR)) | IC50 (breast line MDA468)
1 | CN1CCN(C2CCC(n3ncc4c(N5CC6CCC(C5)O6)nc(-c5ccc(NC(=O)NCCF)cc5)nc43)CC2)CC1 (stereo not drawn) [Example 371, 1-(2-fluoroethyl)-3-(4-{1-[4-(4-methylpiperazin-1-yl)cyclohexyl]-4-(8-oxa-3-azabicyclo[3.2.1]oct-3-yl)-1H-pyrazolo[3,4-d]pyrimidin-6-yl}phenyl)urea] | 190 nM | 8930 nM | 2490 nM | 1.3 nM | 460 nM
2 | CN1CCN(C2CCC(n3ncc4c(N5CC6CCC(C5)O6)nc(-c5ccc(NC(=O)Nc6ccccc6)cc5)nc43)CC2)CC1 (stereo not drawn) [Example 373, 1-(4-{1-[4-(4-methylpiperazin-1-yl)cyclohexyl]-4-(8-oxa-3-azabicyclo[3.2.1]oct-3-yl)-1H-pyrazolo[3,4-d]pyrimidin-6-yl}phenyl)-3-phenylurea] | 220 nM | 1120 nM | 217 nM | 0.385 nM | 200 nM
3 | CCn1ncc2c(N3CC4CCC(C3)O4)nc(-c3ccc(NC(=O)OC)cc3)nc21 [Example 375, methyl {4-[1-ethyl-4-(8-oxa-3-azabicyclo[3.2.1]oct-3-yl)-1H-pyrazolo[3,4-d]pyrimidin-6-yl]phenyl}carbamate] | 700 nM | > 10000 nM | 4790 nM | 15.5 nM | 1700 nM
4 | COC(=O)Nc1ccc(-c2nc(N3CC4CCC(C3)O4)c3cnn(C4CCC5(CC4)OCCO5)c3n2)cc1 [Example 377, methyl {4-[1-(1,4-dioxaspiro[4.5]dec-8-yl)-4-(8-oxa-3-azabicyclo[3.2.1]oct-3-yl)-1H-pyrazolo[3,4-d]pyrimidin-6-yl]phenyl}carbamate] | 140 nM | > 10000 nM | 7360 nM | 2.5 nM | 1200 nM
5 | Oc1cccc(-c2nc(N3C4CCC3COC4)c3cnn(-c4ccccc4)c3n2)c1 [Example 378, 3-[4-(3-oxa-8-azabicyclo[3.2.1]oct-8-yl)-1-phenyl-1H-pyrazolo[3,4-d]pyrimidin-6-yl]phenol] | 820 nM | 1960 nM | 407 nM | 11.5 nM | 5800 nM
6 | O=C(Nc1ccc(-c2nc(N3CC4C[C@@H](O)C(C3)O4)c3cnn(CC(F)(F)F)c3n2)cc1)OCCO (stereo partly drawn) [Example 379, 2-hydroxyethyl (4-{4-[(6R)-6-hydroxy-8-oxa-3-azabicyclo[3.2.1]oct-3-yl]-1-(2,2,2-trifluoroethyl)-1H-pyrazolo[3,4-d]pyrimidin-6-yl}phenyl)carbamate] | 6800 nM | > 10000 nM | > 10000 nM | 245 nM | 5000 nM
7 | Oc1cccc(-c2nc(N3C[C@@H]4C[C@H]3CO4)c3cnn(-c4ccccc4)c3n2)c1 [Example 382, 3-{4-[(1S,4S)-2-oxa-5-azabicyclo[2.2.1]hept-5-yl]-1-phenyl-1H-pyrazolo[3,4-d]pyrimidin-6-yl}phenol] | 1200 nM | 11600 nM | 1910 nM | 49.5 nM | 5500 nM
8 | CNC(=O)Nc1ccc(-c2nc(N3CC4CCC(C3)O4)c3cnn(C4COCOC4)c3n2)cc1 [Example 385, 1-{4-[1-(1,3-dioxan-5-yl)-4-(8-oxa-3-azabicyclo[3.2.1]oct-3-yl)-1H-pyrazolo[3,4-d]pyrimidin-6-yl]phenyl}-3-methylurea] | 1000 nM | > 10000 nM | 4030 nM | 9.95 nM | 4700 nM
9 | c1cc2cc(-c3nc(N4CC5CCC(C4)O5)c4cnn(C5CCC6(CC5)OCCO6)c4n3)ccc2[nH]1 [Example 388, 1-(1,4-dioxaspiro[4.5]dec-8-yl)-6-(1H-indol-5-yl)-4-(8-oxa-3-azabicyclo[3.2.1]oct-3-yl)-1H-pyrazolo[3,4-d]pyrimidine] | 330 nM | > 10000 nM | 10500 nM | 12.5 nM | 2000 nM
10 | Cn1ncc2c(N3CC4COC(C3)O4)nc(-c3ccc(NC(=O)Nc4cccnc4)cc3)nc21 (stereo not drawn) [Example 391, 1-{4-[4-(6,8-dioxa-3-azabicyclo[3.2.1]oct-3-yl)-1-methyl-1H-pyrazolo[3,4-d]pyrimidin-6-yl]phenyl}-3-pyridin-3-ylurea] | 185 nM | 919 nM | 101 nM | 4.2 nM | 580 nM
11 | CNC(=O)Nc1ccc(-c2nc(N3CC4COC(C3)O4)c3cnn(C)c3n2)cc1 (stereo not drawn) [Example 392, 1-{4-[4-(6,8-dioxa-3-azabicyclo[3.2.1]oct-3-yl)-1-methyl-1H-pyrazolo[3,4-d]pyrimidin-6-yl]phenyl}-3-methylurea] | 1200 nM | 11000 nM | 582 nM | 39.5 nM | 4800 nM
12 | c1cncc(CN2CCC(n3ncc4c(N5CC6CCC(C5)O6)nc(-c5ccc6[nH]ccc6c5)nc43)CC2)c1 [Example 394, 6-(1H-indol-5-yl)-4-(8-oxa-3-azabicyclo[3.2.1]oct-3-yl)-1-[1-(pyridin-3-ylmethyl)piperidin-4-yl]-1H-pyrazolo[3,4-d]pyrimidine] | 320 nM | 9500 nM | 2920 nM | 14.5 nM | 2000 nM
13 | CCn1nc(Br)c2c(N3CC4CCC(C3)O4)nc(-c3ccc(NC(=O)NC)cc3)nc21 [Example 397, 1-{4-[3-bromo-1-ethyl-4-(8-oxa-3-azabicyclo[3.2.1]oct-3-yl)-1H-pyrazolo[3,4-d]pyrimidin-6-yl]phenyl}-3-methylurea] | 210 nM | 5630 nM | 317 nM | 3.1 nM | 1500 nM

Stronger by IC50 (prostate line LNCap), values ahead:

Row | IC50 (prostate line LNCap) | IC50 (PI3K [1]) | IC50 (PI3K [2]) | IC50 (Human mTOR (FLAG-TOR)) | SMILES | IC50 (breast line MDA468)
14 | 130 nM | 6510 nM | 2150 nM | 0.985 nM | CCNC(=O)Nc1ccc(-c2nc(N3CC4CCC(C3)O4)c3cnn(C4CCC(N5CCN(C)CC5)CC4)c3n2)cc1 (stereo not drawn) [Example 370, 1-ethyl-3-(4-{1-[4-(4-methylpiperazin-1-yl)cyclohexyl]-4-(8-oxa-3-azabicyclo[3.2.1]oct-3-yl)-1H-pyrazolo[3,4-d]pyrimidin-6-yl}phenyl)urea] | 400 nM
15 | 110 nM | 5340 nM | 2980 nM | 0.395 nM | CN1CCN(C2CCC(n3ncc4c(N5CC6CCC(C5)O6)nc(-c5ccc(NC(=O)NC6CC6)cc5)nc43)CC2)CC1 (stereo not drawn) [Example 372, 1-cyclopropyl-3-(4-{1-[4-(4-methylpiperazin-1-yl)cyclohexyl]-4-(8-oxa-3-azabicyclo[3.2.1]oct-3-yl)-1H-pyrazolo[3,4-d]pyrimidin-6-yl}phenyl)urea] | 420 nM
16 | 1 nM | 4060 nM | 270 nM | 0.125 nM | O=C(Nc1ccc(-c2nc(N3CC4CCC(C3)O4)c3cnn(C4CCC5(CC4)OCCO5)c3n2)cc1)Nc1cccnc1 [Example 376, 1-{4-[1-(1,4-dioxaspiro[4.5]dec-8-yl)-4-(8-oxa-3-azabicyclo[3.2.1]oct-3-yl)-1H-pyrazolo[3,4-d]pyrimidin-6-yl]phenyl}-3-pyridin-3-ylurea] | 5 nM
17 | 7 nM | > 10000 nM | 793 nM | 0.53 nM | CNC(=O)Nc1ccc(-c2nc(N3CC4CCC(C3)O4)c3cnn(C4CCC(OC)CC4)c3n2)cc1 (stereo not drawn) [Example 383, 1-{4-[1-(4-methoxycyclohexyl)-4-(8-oxa-3-azabicyclo[3.2.1]oct-3-yl)-1H-pyrazolo[3,4-d]pyrimidin-6-yl]phenyl}-3-methylurea] | 30 nM
18 | 2 nM | 2170 nM | 297 nM | 0.175 nM | COC1CCC(n2ncc3c(N4CC5CCC(C4)O5)nc(-c4ccc(NC(=O)Nc5cccnc5)cc4)nc32)CC1 (stereo not drawn) [Example 384, 1-{4-[1-(4-methoxycyclohexyl)-4-(8-oxa-3-azabicyclo[3.2.1]oct-3-yl)-1H-pyrazolo[3,4-d]pyrimidin-6-yl]phenyl}-3-pyridin-3-ylurea] | 22 nM
19 | 1 nM | 3090 nM | 330 nM | 1.75 nM | O=C(Nc1ccc(-c2nc(N3C[C@@H]4C[C@H]3CO4)c3cnn(CC(F)(F)F)c3n2)cc1)Nc1ccc(N2CCNCC2)cc1 [Example 393, 1-(4-{4-[(1S,4S)-2-oxa-5-azabicyclo[2.2.1]hept-5-yl]-1-(2,2,2-trifluoroethyl)-1H-pyrazolo[3,4-d]pyrimidin-6-yl}phenyl)-3-(4-piperazin-1-ylphenyl)urea] | 14 nM
20 | 4 nM | 8000 nM | 1460 nM | 0.48 nM | O=C(Nc1ccc(-c2nc(N3CC4CCC(C3)O4)c3cnn(CC(F)(F)F)c3n2)cc1)NC1CC1 [Example 395, 1-cyclopropyl-3-{4-[4-(8-oxa-3-azabicyclo[3.2.1]oct-3-yl)-1-(2,2,2-trifluoroethyl)-1H-pyrazolo[3,4-d]pyrimidin-6-yl]phenyl}urea] | 60 nM
21 | < 1 nM | 1990 nM | 165 nM | 0.335 nM | CN1CCN(c2ccc(NC(=O)Nc3ccc(-c4nc(N5CC6CCC(C5)O6)c5cnn(C6CCC(=O)CC6)c5n4)cc3)cc2)CC1 [Example 400, 1-[4-(4-methylpiperazin-1-yl)phenyl]-3-{4-[4-(8-oxa-3-azabicyclo[3.2.1]oct-3-yl)-1-(4-oxocyclohexyl)-1H-pyrazolo[3,4-d]pyrimidin-6-yl]phenyl}urea] | < 1 nM
